Assay [1] concerns shunt pathway activated by cobra venom factor. Briefly: Test, Code 036 (C-Shunt inhibitor). Format: cell-based. Conditions: serial two-fold dilution assay; lysis of fragile human erythrocytes in autologous serum.
Another assay concerns the target activated human C1 (Homo sapiens, UniProt P09871). Briefly: Test, Code 026 (C1 inhibitor). It is filed as biochemical. The settings on record: serial two-fold dilution assay; higher well numbers indicate higher activity; protection of human C2 from C1 and C4. The protocol:
(§1) This test measures the ability of activated human C1 to destroy fluid phase human C2 in the presence of C4 and appropriate dilutions of the test compound. An active inhibitor protects C2 from C1 and C4; (ii) Test, Code 035 (C3-C9 inhibitor) - This test determines the ability of the late components of human complement (C3-C9) to lyse EAC 142 in the presence of appropriate dilutions of the test compound. […] The lesion is measured in terms of diameter, edema and hemorrhage and the extent to which a combined index of these is inhibited by prior intraperitoneal injection of the test compound at […] is then reported, unless otherwise stated; (v) Forssman Shock Test -- Lethal shock is produced in guinea pigs by an i.v. injection of anti-Forssman antiserum and the harmonic mean death time of treated guinea pigs is compared with that of simultaneous controls; (vi) Complement Level Reduction Test -- In this test, the above dosed guinea pigs, or others, are bled for serum and the complement level is determined in undiluted serum by the capillary tube method of U.S. Pat. No. 3,876,376 and compared to undosed control guinea pigs; and (vii) Cap 50 Test -- Here, appropriate amounts of the test compound are added to a pool of guinea pig serum in vitro, after which the undiluted serum capillary tube assay referred to above is run. […]

Assay [2] relates to late components of human complement (C3-C9). Briefly: Test, Code 035 (C3-C9 inhibitor). It is filed as biochemical. Also noted: key: N = negative. The settings on record: serial two-fold dilution assay; protection of EAC 142 from lysis by human C3-C9. The protocol:
as §1

Where a name gives a salt, the structure may show the parent alone.

Turning to `O=S(=O)(O)OC[C@H]1O[C@H](OS(=O)(=O)O)[C@H](NS(=O)(=O)c2cc(S(=O)(=O)N[C@H]3[C@@H](OS(=O)(=O)O)O[C@H](COS(=O)(=O)O)[C@@H](OS(=O)(=O)O)[C@@H]3OS(=O)(=O)O)cc(S(=O)(=O)N[C@H]3[C@@H](OS(=O)(=O)O)O[C@H](COS(=O)(=O)O)[C@@H](OS(=O)(=O)O)[C@@H]3OS(=O)(=O)O)c2)[C@@H](OS(=O)(=O)O)[C@@H]1OS(=O)(=O)O` [2,2',2"-[s-Phenenyltris(sulfonylimino)]-tris[2-deoxy-α-D-glu] [2,2',2"-[s-Phenenyltris(sulfonylimino)]tris[2-deoxy-α-D-glucopyranose], dodecakis (H-sulfate) dodecasodium salt], in assay [1], the “In Vitro Activity Shunt Inhibition 036 Wells” value is “+1 Wells”.

In the case of `O=S(=O)(O)OC[C@H]1O[C@H](OS(=O)(=O)O)[C@H](NS(=O)(=O)c2cc(S(=O)(=O)N[C@H]3[C@@H](OS(=O)(=O)O)O[C@H](COS(=O)(=O)O)[C@@H](OS(=O)(=O)O)[C@@H]3OS(=O)(=O)O)cc(S(=O)(=O)N[C@H]3[C@@H](OS(=O)(=O)O)O[C@H](COS(=O)(=O)O)[C@@H](OS(=O)(=O)O)[C@@H]3OS(=O)(=O)O)c2)[C@@H](OS(=O)(=O)O)[C@@H]1OS(=O)(=O)O` [2,2',2"-[s-Phenenyltris(sulfonylimino)]tris[2-deoxy-α-D-glucopyranose], dodecakis (H-sulfate) dodecasalt with trimethylamine], at activated human C1, the “In Vitro Activity C1 026 Wells” value is “+7 Wells”. For the same molecule, the “In Vitro Activity C-Late 035 Wells” value in assay [2] is “N”.

On to `O=S(=O)(O)OC[C@H]1O[C@H](OS(=O)(=O)O)[C@H](NS(=O)(=O)c2cc(S(=O)(=O)N[C@H]3[C@@H](OS(=O)(=O)O)O[C@H](COS(=O)(=O)O)[C@@H](OS(=O)(=O)O)[C@@H]3OS(=O)(=O)O)cc(S(=O)(=O)N[C@H]3[C@@H](OS(=O)(=O)O)O[C@H](COS(=O)(=O)O)[C@@H](OS(=O)(=O)O)[C@@H]3OS(=O)(=O)O)c2)[C@@H](OS(=O)(=O)O)[C@@H]1OS(=O)(=O)O` [2,2',2"-[ s-Phenenyltris(sulfonylimino)]-tris[2-deoxy-α-D-gl] [2,2',2"-[s-Phenenyltris(sulfonylimino)]tris[2-deoxy-α-D-glucopyranose], dodecakis (H-sulfate) dodecasalt with trimethylamine], for which the “In Vitro Activity Shunt Inhibition 036 Wells” value in assay [1] is “+2 Wells”.

The values are drawn from patent publication US4120953A, “Novel 2,2', 2"-[s-phenenyltris(sulfonylimino)tris]-[2-deoxy-α-D-glucopyranose] , dodecakis (H-sulfate) compounds and their salts” (American Cyanamid Company, priority 1977, dated 1978).
